# According to patent US20230374035A1, “RAS INHIBITORS” (Revolution Medicines, Inc., priority 2019, published 2023):
# How the values were obtained:
# [1] = system: NCI-H358 (K-Ras G12C); assay: CellTiter-Glo Cell Viability Assay; assay type: cell-based; details: Homo sapiens, NCI-H358, 120 h; H358, 5-day treatment
# Method: Determination of Cell Viability in RAS Mutant Cancer Cell Lines
# Protocol: CellTiter-Glo® Cell Viability Assay
# Note—The following protocol describes a procedure for monitoring cell viability of K-Ras mutant cancer cell lines in response to a compound of the invention. Other RAS isoforms may be employed, though the number of cells to be seeded will vary based on cell line used.
# Test compounds (132.5 nl) were directly dispensed into the assay plates containing cells. […] On day 5, assay plates and their contents were equilibrated to room temperature for approximately 30 minutes. […] Luminescence was measured using the PerkinElmer Enspire. Data were normalized by the following: (Sample signal/Avg. DMSO)*100. The data were fit using a four-parameter logistic fit.
# [2] = molecular target: NRAS Q61K (Homo sapiens, UniProt P01111+P62937, Q61K); assay: Disruption of BRAF RBD interaction with Ras (FRET / MOA assay); assay type: biochemical; details: read-out: NRAS Q61K FRET data IC50
# NRAS Q61K, sequence (P01111 whole entry Q61K): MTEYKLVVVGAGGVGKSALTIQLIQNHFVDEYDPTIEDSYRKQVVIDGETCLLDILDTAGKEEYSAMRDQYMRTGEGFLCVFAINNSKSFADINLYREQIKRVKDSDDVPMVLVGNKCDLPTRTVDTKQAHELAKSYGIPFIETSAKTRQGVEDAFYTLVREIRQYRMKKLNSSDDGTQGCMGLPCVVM
# NRAS Q61K, sequence (P62937 whole entry): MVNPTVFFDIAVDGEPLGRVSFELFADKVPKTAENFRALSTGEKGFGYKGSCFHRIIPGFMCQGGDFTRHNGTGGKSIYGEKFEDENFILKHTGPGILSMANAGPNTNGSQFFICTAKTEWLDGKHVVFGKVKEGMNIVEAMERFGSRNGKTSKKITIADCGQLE
# Method: (§1) Compound is present in plate wells as a 10-point 3-fold dilution series starting at a final concentration of 30 μM. […] Compounds that facilitate disruption of a Ras:RAF complex are identified as those eliciting a decrease in the TR-FRET ratio relative to DMSO control wells.
# (§2) Note—The following protocol describes a procedure for monitoring disruption of K-Ras G12C (GMP-PNP) binding to BRAF^RBD by a compound of the invention. This protocol may also be executed substituting other Ras proteins or nucleotides.
# (§3) The purpose of this biochemical assay was to measure the ability of test compounds to facilitate ternary complex formation between a nucleotide-loaded K-Ras isoform and Cyclophilin A; the resulting ternary complex disrupts binding to a BRAF^RBD construct, inhibiting K-Ras signaling through a RAF effector. Data is reported as IC50 values.
# (§4) Compound was present in plate wells as a 10-point 3-fold dilution series starting at a final concentration of 30 μM. […] Compounds that facilitate disruption of a K-Ras:RAF complex were identified as those eliciting a decrease in the TR-FRET ratio relative to DMSO control wells.
# [3] = molecular target: NRAS Q61R (Homo sapiens, UniProt P01111+P62937, Q61R); assay: as above; assay type: biochemical; details: read-out: NRAS Q61R FRET data IC50
# NRAS Q61R, sequence (P01111 whole entry Q61R): as the sequence (P01111 whole entry Q61K) above, with K61R counted along it
# NRAS Q61R, sequence (P62937 whole entry): as the sequence (P62937 whole entry) above
# Method: as §1, §2, §3, §4
Compound,IC50 [1] [nM],IC50 [2] [nM],IC50 [3] [nM]
"CCn1c(-c2cccnc2[C@H](C)OC)c2c3cc(ccc31)-c1csc(n1)C[C@H](NC(=O)[C@H](C(C)C)N(C)C(=O)N1CC(C3COC3)C1)C(=O)N1CCC[C@H](N1)C(=O)OCC(C)(C)C2 (atropisomer, axis not shown) [Compound A298]",< 10,,
"CCn1c(-c2cccnc2[C@H](C)OC)c2c3cc(ccc31)-c1csc(n1)C[C@H](NC(=O)[C@H](C(C)C)N(C)C(=O)N1CCO[C@H](C)C1)C(=O)N1CCC[C@H](N1)C(=O)OCC(C)(C)C2 (atropisomer, axis not shown) [Compound A310]",< 10,10 to 100,
CO[C@@H](C)c1ncccc1-c1c2c3cc(ccc3n1CC(F)(F)F)-c1csc(n1)C[C@H](NC(=O)[C@H](C(C)C)N(C)C(=O)N1CC(N(C)C)C1)C(=O)N1CCC[C@H](N1)C(=O)OCC(C)(C)C2 [Compound A303],< 10,,
"CCn1c(-c2cccnc2[C@H](C)OC)c2c3cc(ccc31)-c1cc(O)cc(c1)C[C@H](NC(=O)[C@H](C(C)C)N(C)C(=O)[C@@H]1OCC[C@@H]1c1ccccc1)C(=O)N1CCC[C@H](N1)C(=O)OCC(C)(C)C2 (atropisomer, axis not shown) [Compound A415]",,10 to 100,10 to 100
"CCn1c(-c2cc(N3CCN(C)CC3)cnc2[C@H](C)OC)c2c3cc(ccc31)-c1csc(n1)C[C@H](NC(=O)[C@H](C(C)C)N(C)C(=O)[C@H]1CCCS1(=O)=O)C(=O)N1CCC[C@H](N1)C(=O)OCC(C)(C)C2 (atropisomer, axis not shown) [Compound A439]",< 10,,
"CCn1c(-c2cccnc2[C@H](C)OC)c2c3cc(ccc31)-c1cc(O)cc(c1)C[C@H](NC(=O)[C@H](C(C)C)N(C)C(=O)[C@@H]1CCN(C(=O)OC)C1)C(=O)N1CCC[C@H](N1)C(=O)OCC(C)(C)C2 (atropisomer, axis not shown) [Compound A365]",< 10,,
"CCn1c(-c2cccnc2[C@H](C)OC)c2c3cc(ccc31)-c1csc(n1)C[C@H](NC(=O)[C@H](C(C)C)N(C)C(=O)N1CC[C@@H]1C)C(=O)N1CCC[C@H](N1)C(=O)OCC(C)(C)C2 (atropisomer, axis not shown) [Compound A304]",< 10,10 to 100,10 to 100
CCn1c(-c2cccnc2[C@H](C)OC)c2c3cc(ccc31)-c1csc(n1)C[C@H](NC(=O)[C@H](C(C)C)N(C)C(=O)N1CCN3CCOCC3C1)C(=O)N1CCC[C@H](N1)C(=O)OCC(C)(C)C2 (stereo partly shown) [Compound A296],< 10,,
CCn1c(-c2cccnc2[C@H](C)OC)c2c3cc(ccc31)-c1cc(O)cc(c1)C[C@H](NC(=O)C1CCC3C1C3(F)F)C(=O)N1CCC[C@H](N1)C(=O)OCC(C)(C)C2 (stereo partly shown) [Compound A181],,,> 10000
"CCn1c(-c2cccnc2[C@H](C)OC)c2c3cc(ccc31)-c1csc(n1)C[C@H](NC(=O)[C@H](C(C)C)N(C)C(=O)N1CC3(CC(N4CC(F)C4)C3)C1)C(=O)N1CCC[C@H](N1)C(=O)OCC(C)(C)C2 (atropisomer, axis not shown) [Compound A457]",< 10,10 to 100,
"CCn1c(-c2cccnc2[C@H](C)OC)c2c3cc(ccc31)-c1csc(n1)C[C@H](NC(=O)[C@H](C(C)C)N(C)C(=O)N1CC(N3CCOCC3)C1)C(=O)N1CCC[C@H](N1)C(=O)OCC(C)(C)C2 (atropisomer, axis not shown) [Compound A338]",< 10,,
"CCn1c(-c2cccnc2[C@H](C)OC)c2c3cc(ccc31)-c1csc(n1)C[C@H](NC(=O)[C@H](C(C)C)N(C)C(=O)N1CC(O)C1)C(=O)N1CCC[C@H](N1)C(=O)OCC(C)(C)C2 (atropisomer, axis not shown) [Compound A358]",< 10,10 to 100,
CCn1c(-c2cccnc2[C@H](C)OC)c2c3cc(ccc31)-c1csc(n1)C[C@H](NC(=O)[C@H](C(C)C)N(C)C(=O)N1CCC(C(=O)C(F)(F)F)CC1)C(=O)C1CCC[C@H](N1)C(=O)OCC(C)(C)C2 [Compound A422],,10 to 100,10 to 100
"CCn1c(-c2cccnc2[C@H](C)OC)c2c3cc(ccc31)-c1csc(n1)C[C@H](NC(=O)[C@H](C(C)C)N(C)C(=O)N1CC(S(=O)(=O)N(C)C)C1)C(=O)N1CCC[C@H](N1)C(=O)OCC(C)(C)C2 (atropisomer, axis not shown) [Compound A551]",< 10,10 to 100,
"CCn1c(-c2cccnc2[C@H](C)OC)c2c3cc(ccc31)-c1csc(n1)C[C@H](NC(=O)[C@H](C(C)C)N(C)C(=O)N1C[C@H]3COC[C@H]3C1)C(=O)N1CCC[C@H](N1)C(=O)OCC(C)(C)C2 (atropisomer, axis not shown) [Compound A312]",,10 to 100,10 to 100
"CCn1c(-c2cccnc2[C@H](C)OC)c2c3cc(ccc31)-c1csc(n1)C[C@H](NC(=O)[C@H](C(C)C)N(C)C(=O)N(C)N(C)C)C(=O)N1CCC[C@H](N1)C(=O)OCC(C)(C)C2 (atropisomer, axis not shown) [Compound A454]",,10 to 100,10 to 100
"CCn1c(-c2cccnc2[C@H](C)OC)c2c3cc(ccc31)-c1csc(n1)C[C@H](NC(=O)[C@H](C(C)C)N(C)C(=O)N1C[C@@H]3OCCN(C)[C@H]3C1)C(=O)N1CCC[C@H](N1)C(=O)OCC(C)(C)C2 (atropisomer, axis not shown) [Compound A445]",,10 to 100,

# Further lines, results first:
IC50 [1] [nM],IC50 [2] [nM],IC50 [3] [nM],Compound
< 10,10 to 100,,"CCn1c(-c2cccnc2[C@H](C)OC)c2c3cc(ccc31)-c1csc(n1)C[C@H](NC(=O)[C@H](C(C)C)N(C)C(=O)N1CC([C@@H](CO)OC)C1)C(=O)N1CCC[C@H](N1)C(=O)OCC(C)(C)C2 (atropisomer, axis not shown) [Compound A514]"
< 10,10 to 100,,"CCn1c(-c2cccnc2[C@H](C)OC)c2c3cc(ccc31)-c1csc(n1)C[C@H](NC(=O)[C@H](C(C)C)N(C)C(=O)N1CC([C@H](CO)OC)C1)C(=O)N1CCC[C@H](N1)C(=O)OCC(C)(C)C2 (atropisomer, axis not shown) [Compound A515]"
< 10,10 to 100,10 to 100,"CCn1c(-c2cccnc2[C@H](C)OC)c2c3cc(ccc31)-c1csc(n1)C[C@H](NC(=O)[C@H](C(C)C)N(C)C(=O)N1CCC3(COC3)C1)C(=O)N1CCC[C@H](N1)C(=O)OCC(C)(C)C2 (atropisomer, axis not shown) [Compound A561]"
,10 to 100,10 to 100,"CCn1c(-c2cccnc2[C@H](C)OC)c2c3cc(ccc31)-c1csc(n1)C[C@H](NC(=O)[C@H](C(C)C)N(C)C(=O)N1CCC13COC3)C(=O)N1CCC[C@H](N1)C(=O)OCC(C)(C)C2 (atropisomer, axis not shown) [Compound A560]"
< 10,10 to 100,,"CCn1c(-c2cccnc2[C@H](C)OC)c2c3cc(ccc31)-c1csc(n1)C[C@H](NC(=O)[C@H](C(C)C)N(C)C(=O)N1CCO[C@H](CN(C)C)C1)C(=O)N1CCC[C@H](N1)C(=O)OCC(C)(C)C2 (atropisomer, axis not shown) [Compound A590]"
< 10,,,"CCn1c(-c2cccnc2[C@H](C)OC)c2c3cc(ccc31)-c1csc(n1)C[C@H](NC(=O)[C@H](C(C)C)N(C)C(=O)N1CCN(C(=O)C3CC3)CC1)C(=O)N1CCC[C@H](N1)C(=O)OCC(C)(C)C2 (atropisomer, axis not shown) [Compound A607]"
< 10,,,"CCn1c(-c2cc(N3CCN(C)CC3)cnc2[C@H](C)OC)c2c3cc(ccc31)-c1csc(n1)C[C@H](NC(=O)[C@H](C(C)C)N(C)C(=O)[C@@H]1OCC[C@@H]1c1cccnc1)C(=O)N1CCC[C@H](N1)C(=O)OCC(C)(C)C2 (atropisomer, axis not shown) [Compound A490]"
,10 to 100,10 to 100,"CCn1c(-c2cccnc2[C@H](C)OC)c2c3cc(ccc31)-c1cc(O)cc(c1)C[C@H](NC(=O)[C@H](C(C)C)N(C)C(=O)[C@@H]1OCC[C@H]1c1ccccc1)C(=O)N1CCC[C@H](N1)C(=O)OCC(C)(C)C2 (atropisomer, axis not shown) [Compound A584]"
< 10,10 to 100,,"CCn1c(-c2cccnc2[C@H](C)OC)c2c3cc(ccc31)-c1csc(n1)C[C@H](NC(=O)[C@H](C(C)C)N(C)C(=O)N1CC(C(=O)N3CCOCC3)C1)C(=O)N1CCC[C@H](N1)C(=O)OCC(C)(C)C2 (atropisomer, axis not shown) [Compound A543]"
,10 to 100,10 to 100,"CCn1c(-c2cccnc2[C@H](C)OC)c2c3cc(ccc31)-c1csc(n1)C[C@H](NC(=O)[C@H](C(C)C)N(C)C(=O)N1CCOC3(COC3)C1)C(=O)N1CCC[C@H](N1)C(=O)OCC(C)(C)C2 (atropisomer, axis not shown) [Compound A475]"
